Source: patent US12403128B2, “Compositions and methods for blocking sodium channels” (University of Virginia Patent Foundation, priority 2017, dated 2025)
≈ marks a conversion by molar mass, not a printed value. Counter-ions that a name gives are not always drawn. One block for each compound: values may come before it.

Tests used:
[1] = target: T1, rat NaV1.6 sodium channels (Rattus norvegicus, UniProt O88420); test: Dose response on rat NaV1.6 channels in HEK293 cells; type: cell-based; settings: rat Nav1.6 channel
T1 construct: expressed in transfected cells; host or cells: HEK293
From the text: Evaluation of Dose Response and Activation Response Compounds on Rat NaV1.6 Channels in Human Embryonic Kidney Cells (HEK293).

[2] = tested on: knock-in mouse carrying the human N1768D gain of function NaV1.6 mutation (spontaneous seizures); test: Seizure suppression in NaV1.6 mutation knock-in mouse model; type: in vivo; settings: 100 mg/kg
Procedure: In Vivo Evaluation for Seizure Suppression in a Human Gain of Function NaV1.6 Mutation Knock-In Mouse Model.
Compounds were tested in vivo for seizure suppression in a knock-in mouse carrying the human N1768D gain of function NaV1.6 mutation. These knock-in mice experience spontaneous seizures. All test compounds were evaluated at 100 mg/kg.

Nav1.6 [3] = target: T2, Nav1.6 (Homo sapiens, UniProt Q9UQD0); test: High-throughput flux assay, Nav1.6; type: cell-based; settings: human isoform;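 also: IC50 from the flux assay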
Procedure: (§1) Evaluation of Compounds on Human Isoforms Using a High-Throughput Flux Assay
(§2) Compounds were tested using a high-throughput flux assay across Nav1.5, Nav1.6 and Nav1.7.

NaV1.5 [4] = target: T3, NaV1.5 (Homo sapiens, UniProt Q14524); test: Qube assay, NaV1.5; type: cell-based; settings: human isoform; read-out: Qube EP IC50 NaV1.5
T3 sequence (Q14524 whole entry, canonical isoform): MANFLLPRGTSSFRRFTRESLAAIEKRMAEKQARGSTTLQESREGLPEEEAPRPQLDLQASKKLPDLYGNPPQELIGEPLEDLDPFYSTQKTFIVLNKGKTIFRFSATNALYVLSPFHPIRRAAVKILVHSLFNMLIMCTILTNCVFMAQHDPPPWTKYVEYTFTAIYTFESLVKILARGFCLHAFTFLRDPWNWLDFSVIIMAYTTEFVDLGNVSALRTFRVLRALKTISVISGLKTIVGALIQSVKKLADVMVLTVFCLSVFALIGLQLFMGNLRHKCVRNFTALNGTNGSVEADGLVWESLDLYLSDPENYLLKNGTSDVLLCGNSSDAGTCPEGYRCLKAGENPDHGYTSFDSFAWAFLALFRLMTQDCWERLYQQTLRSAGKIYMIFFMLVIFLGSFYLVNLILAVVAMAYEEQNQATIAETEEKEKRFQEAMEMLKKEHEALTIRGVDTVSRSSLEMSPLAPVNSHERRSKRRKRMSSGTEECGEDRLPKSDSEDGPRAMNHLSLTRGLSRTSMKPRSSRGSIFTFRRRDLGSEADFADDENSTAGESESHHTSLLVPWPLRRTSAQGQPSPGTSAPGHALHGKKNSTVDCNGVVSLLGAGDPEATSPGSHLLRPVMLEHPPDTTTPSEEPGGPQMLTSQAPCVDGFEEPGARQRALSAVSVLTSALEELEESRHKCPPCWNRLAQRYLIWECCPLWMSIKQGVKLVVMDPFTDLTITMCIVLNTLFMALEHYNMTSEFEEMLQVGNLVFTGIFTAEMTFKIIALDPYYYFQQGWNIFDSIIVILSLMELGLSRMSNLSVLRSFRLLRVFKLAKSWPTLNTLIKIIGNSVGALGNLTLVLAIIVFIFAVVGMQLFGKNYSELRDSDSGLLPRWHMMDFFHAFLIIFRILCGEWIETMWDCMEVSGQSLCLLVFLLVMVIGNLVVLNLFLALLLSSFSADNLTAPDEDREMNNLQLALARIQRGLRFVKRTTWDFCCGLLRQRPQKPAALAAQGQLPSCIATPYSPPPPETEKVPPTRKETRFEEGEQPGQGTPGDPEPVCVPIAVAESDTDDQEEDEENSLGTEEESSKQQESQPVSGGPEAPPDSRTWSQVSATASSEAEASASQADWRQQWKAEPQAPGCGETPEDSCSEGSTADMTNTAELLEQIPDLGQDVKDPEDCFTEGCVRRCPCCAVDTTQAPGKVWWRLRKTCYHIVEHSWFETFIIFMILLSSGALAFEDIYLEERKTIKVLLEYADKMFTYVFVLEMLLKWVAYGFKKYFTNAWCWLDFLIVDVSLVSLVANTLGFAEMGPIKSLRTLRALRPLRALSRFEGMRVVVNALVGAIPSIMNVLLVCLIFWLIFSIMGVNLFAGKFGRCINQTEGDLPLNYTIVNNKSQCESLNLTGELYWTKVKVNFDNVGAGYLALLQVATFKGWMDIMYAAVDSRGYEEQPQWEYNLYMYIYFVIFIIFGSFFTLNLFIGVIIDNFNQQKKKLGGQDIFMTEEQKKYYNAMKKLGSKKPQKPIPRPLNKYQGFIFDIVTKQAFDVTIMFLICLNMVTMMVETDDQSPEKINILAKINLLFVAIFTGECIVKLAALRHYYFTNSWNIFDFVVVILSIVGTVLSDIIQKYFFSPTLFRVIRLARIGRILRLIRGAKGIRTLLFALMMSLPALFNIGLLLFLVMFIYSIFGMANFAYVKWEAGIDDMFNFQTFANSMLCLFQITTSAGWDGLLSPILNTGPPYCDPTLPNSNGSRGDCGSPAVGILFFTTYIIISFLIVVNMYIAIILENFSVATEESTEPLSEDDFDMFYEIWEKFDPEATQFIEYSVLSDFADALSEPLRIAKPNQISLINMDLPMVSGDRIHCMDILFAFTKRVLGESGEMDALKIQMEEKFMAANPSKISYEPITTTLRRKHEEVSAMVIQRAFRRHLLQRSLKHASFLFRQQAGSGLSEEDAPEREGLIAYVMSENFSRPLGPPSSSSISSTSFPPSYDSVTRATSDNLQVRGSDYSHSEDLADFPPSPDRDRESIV
Procedure: (§3) Evaluation of Compounds on Human Isoforms Using Qube Assay.
(§4) Compounds were tested using a Qube assay across NaV1.5, NaV1.6 and NaV1.7.

NaV1.7 [5] = target: T4, NaV1.7 (Homo sapiens, UniProt Q15858); test: Qube assay, NaV1.7; type: cell-based; settings: human isoform; read-out: Qube EP IC50 NaV1.7
T4 sequence (Q15858 whole entry, canonical isoform): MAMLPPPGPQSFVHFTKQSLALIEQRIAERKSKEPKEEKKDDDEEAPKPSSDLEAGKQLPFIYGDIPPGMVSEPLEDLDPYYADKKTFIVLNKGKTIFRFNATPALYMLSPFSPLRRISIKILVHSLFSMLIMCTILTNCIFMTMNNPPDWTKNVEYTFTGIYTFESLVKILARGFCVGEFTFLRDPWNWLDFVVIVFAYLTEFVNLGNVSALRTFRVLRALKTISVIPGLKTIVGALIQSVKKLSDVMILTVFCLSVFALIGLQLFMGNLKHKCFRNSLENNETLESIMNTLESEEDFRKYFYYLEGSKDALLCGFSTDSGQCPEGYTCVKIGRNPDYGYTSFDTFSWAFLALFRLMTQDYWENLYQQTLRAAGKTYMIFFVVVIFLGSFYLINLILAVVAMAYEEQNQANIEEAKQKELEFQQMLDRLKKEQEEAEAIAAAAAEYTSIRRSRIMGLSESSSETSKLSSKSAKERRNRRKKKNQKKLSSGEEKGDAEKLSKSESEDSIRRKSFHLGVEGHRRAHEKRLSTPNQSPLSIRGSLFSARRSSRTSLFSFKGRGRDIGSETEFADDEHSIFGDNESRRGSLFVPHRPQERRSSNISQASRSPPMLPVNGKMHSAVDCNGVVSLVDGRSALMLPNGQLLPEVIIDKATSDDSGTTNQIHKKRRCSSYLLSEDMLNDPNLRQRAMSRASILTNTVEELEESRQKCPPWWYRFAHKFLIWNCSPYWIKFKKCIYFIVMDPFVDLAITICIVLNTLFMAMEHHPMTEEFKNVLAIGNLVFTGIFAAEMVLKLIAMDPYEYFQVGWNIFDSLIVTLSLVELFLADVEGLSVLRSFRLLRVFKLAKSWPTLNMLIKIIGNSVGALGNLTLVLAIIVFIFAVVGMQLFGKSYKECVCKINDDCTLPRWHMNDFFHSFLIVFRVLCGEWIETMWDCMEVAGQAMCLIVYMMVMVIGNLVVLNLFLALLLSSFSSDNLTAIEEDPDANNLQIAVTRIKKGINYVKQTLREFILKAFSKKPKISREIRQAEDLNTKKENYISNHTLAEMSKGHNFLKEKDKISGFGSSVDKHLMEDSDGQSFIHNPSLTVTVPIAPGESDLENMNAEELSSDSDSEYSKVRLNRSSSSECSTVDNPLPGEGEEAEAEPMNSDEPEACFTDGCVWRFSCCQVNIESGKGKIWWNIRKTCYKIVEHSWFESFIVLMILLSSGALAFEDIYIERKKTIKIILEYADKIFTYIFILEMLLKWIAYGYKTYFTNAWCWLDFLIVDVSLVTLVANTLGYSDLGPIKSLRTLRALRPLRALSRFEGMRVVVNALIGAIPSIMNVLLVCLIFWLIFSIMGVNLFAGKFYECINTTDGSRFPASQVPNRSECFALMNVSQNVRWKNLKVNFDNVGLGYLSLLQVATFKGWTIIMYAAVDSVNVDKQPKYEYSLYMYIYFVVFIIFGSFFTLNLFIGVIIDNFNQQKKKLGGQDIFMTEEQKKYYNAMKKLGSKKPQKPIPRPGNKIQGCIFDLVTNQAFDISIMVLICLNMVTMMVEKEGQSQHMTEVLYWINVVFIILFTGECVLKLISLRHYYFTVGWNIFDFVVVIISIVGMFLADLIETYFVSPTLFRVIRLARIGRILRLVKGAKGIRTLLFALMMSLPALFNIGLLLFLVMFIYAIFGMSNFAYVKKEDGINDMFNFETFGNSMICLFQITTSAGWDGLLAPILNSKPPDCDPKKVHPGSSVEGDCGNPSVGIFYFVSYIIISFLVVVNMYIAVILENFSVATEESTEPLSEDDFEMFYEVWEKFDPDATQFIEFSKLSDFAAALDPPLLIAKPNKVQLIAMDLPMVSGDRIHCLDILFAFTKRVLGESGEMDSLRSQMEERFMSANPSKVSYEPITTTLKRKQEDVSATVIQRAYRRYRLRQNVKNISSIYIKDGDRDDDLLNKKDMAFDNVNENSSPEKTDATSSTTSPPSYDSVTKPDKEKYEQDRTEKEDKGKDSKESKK
Procedure: as §3, §4

NaV1.7 [6] = target: T4, NaV1.7; test: High-throughput flux assay, NaV1.7; type: cell-based; settings: human isoform;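 also: IC50 from the flux assay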
Procedure: as §1, §2

Nav1.6 [7] = target: T2, Nav1.6; test: Qube assay, NaV1.6; type: cell-based; settings: human isoform; read-out: Qube EP IC50 NaV1.6
Procedure: as §3, §4

NaV1.5 [8] = target: T3, NaV1.5; test: High-throughput flux assay, NaV1.5; type: cell-based; settings: human isoform;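 also: IC50 from the flux assay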
Procedure: as §1, §2

NaV1.6 sodium channels = NaV1.6 sodium channels (Homo sapiens, UniProt Q9UQD0); test: State-dependent inhibition: steady state inactivation, use-dependent block; type: cell-based; settings: for use-dependent block: 20 Hz
From the text: Evaluation of Compounds as State-Dependent Inhibitors
Use dependent block is an important characteristic for AED activity since it allows increased inhibition of sodium channels during increased neuronal activity as is observed during seizures.

Nav1.6 [9] = target: T2, Nav1.6; test: % block of Nav1.6 at 100 μM and IC50 (NaV1.6); type: cell-based; settings: for inhibition at 100 µM: 100 μM compound
Procedure: Evaluation of Compounds for % Block of Nav1.6 at 100 μM
Compounds of the present invention were tested in an assay for % block of Nav1.6 at a concentration of 100 μM compound. Table 1 also indicates the melting point ranges for some compounds.
Some such compounds correspond to a compound of Formula III, wherein R9 is substituted with a halogen, a nitro or a CF3 group. In comparing MV1089, MV1090 and MV1091, it is shown that compounds of Formula III where R3 is H result in higher % block than when R3 is substituted. e.g., by OCH3. In comparing MV1066, MV1084, MV1085, MV1086, MV1087 and MV1088, it is shown that compounds of Formula III where R9 is halogen, a nitro or a CF3 group result in higher % block than when R9 is OCH3, COOH or CH3.

Solubility = type: physicochemical
[10] = Tox, comparison compounds (species not stated); type: in vivo
[11] = tested on: maximal electroshock (MES) seizures; test: MES test, comparison compounds (species not stated); type: in vivo
From the text: The MES is a model for generalized tonic-clonic seizures and provides an indication of a compound's ability to prevent seizure spread when all neuronal circuits in the brain are maximally active. These seizures are highly reproducible and are electrophysiologically consistent with human seizures. For an MES test, a drop of anesthetic/electrolyte solution (0.5% tetracaine hydrochloride in 0.9% saline) is applied to the eyes of each animal prior to placement of corneal electrodes Electrical stimulus in the MES test may be 50 mA, 60 Hz, for mice and 150 mA, 60 Hz, for rats delivered for 0.2 s. Abolition of the hindleg tonic extensor component of the seizure was used as the endpoint. Mice may be initially tested at various intervals following various doses, e.g., 30, 100 and 300 mg/kg of test compound given by intraperitoneal (IP) injection while rats are initially screened at a fixed dose of 30 mg/kg

[12] = tested on: Metrazol-induced clonic seizures; test: scM test, comparison compounds (species not stated); type: in vivo
Procedure: (§5) Subcutaneous injection of the convulsant Metrazol produces clonic seizures in laboratory animals. […] Animals may be pretreated with various doses of the test compound given by ip injection. At a previously determined TPE (time to peak) of the test compound, the dose of Metrazol which will induce convulsions in 97% of animals (CD97:85 mg/kg mice) may be injected into a loose fold of skin in the midline of the neck. The animals may be placed in isolation cages to minimize stress and observed for the next 30 min for the presence or absence of a seizure. An episode of clonic spasms, approximately 3-5 seconds, of the fore and/or hindlimbs, jaws, or vibrissae may be taken as the endpoint. […] The scM test represents acute animal seizures.

Chemical stability = type: physicochemical; settings: after 24 h at pH 7.4
CYP3A4 = CYP3A4 (Homo sapiens, UniProt P08684); test: Metabolic stability (CYP3A4); type: in vitro ADME; settings: CYP3A4, 1 hr
Sequence of CYP3A4 (P08684 whole entry, species assumed): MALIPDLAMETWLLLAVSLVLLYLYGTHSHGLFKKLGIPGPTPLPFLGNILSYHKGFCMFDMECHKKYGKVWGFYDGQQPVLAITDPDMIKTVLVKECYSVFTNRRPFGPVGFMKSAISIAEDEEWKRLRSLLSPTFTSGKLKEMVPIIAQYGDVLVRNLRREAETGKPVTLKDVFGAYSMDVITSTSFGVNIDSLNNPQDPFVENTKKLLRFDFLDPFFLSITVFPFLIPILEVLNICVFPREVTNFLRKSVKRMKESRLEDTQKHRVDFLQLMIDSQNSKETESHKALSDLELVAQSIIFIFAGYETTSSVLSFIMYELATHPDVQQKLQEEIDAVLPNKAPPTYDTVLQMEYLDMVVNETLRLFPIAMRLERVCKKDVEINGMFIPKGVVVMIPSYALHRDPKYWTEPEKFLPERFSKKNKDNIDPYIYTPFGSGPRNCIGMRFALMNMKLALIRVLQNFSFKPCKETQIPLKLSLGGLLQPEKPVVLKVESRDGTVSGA

[13] = tested on: 6 Hz psychomotor seizures; test: 6 Hz test, comparison compounds (species not stated); type: in vivo; settings: species and current not stated
Procedure: (§6) Compounds were tested using a 6 Hz psychomotor seizure test. […] For example, both the MES and scM models are insensitive to levetiracetam, a compound considered potentially useful in the management of refractory seizures. […] Thus, the 6 Hz test can serve as a therapy resistant screening paradigm of acute seizure activity.

[14] = tested on: maximal electroshock (MES) seizures; test: MES (maximal electroshock) test, rats; type: in vivo; settings: Rattus norvegicus, rats
From the text: Evaluation of Compounds in MES Models of Seizures. The MES is a model for generalized tonic-clonic seizures and provides an indication of a compound's ability to prevent seizure spread when all neuronal circuits in the brain are maximally active. These seizures are highly reproducible and are electrophysiologically consistent with human seizures. […] Abolition of the hindleg tonic extensor component of the seizure was used as the endpoint.

[15] = tested on: maximal electroshock (MES) seizures; test: MES (maximal electroshock) test, mice; type: in vivo; settings: Mus musculus, mice
From the text: Evaluation of Compounds in MES Models of Seizures. […] These seizures are highly reproducible and are electrophysiologically consistent with human seizures. […] Abolition of the hindleg tonic extensor component of the seizure was used as the endpoint.

[16] = Behavioral toxicity (TOX, TD50), rats; type: in vivo; settings: rat, in vivo
[17] = tested on: Metrazol-induced clonic seizures; test: scM (subcutaneous Metrazol) test, rats; type: in vivo; settings: Rattus norvegicus, rats
Procedure: as §5, with “Evaluation of Compounds in scM Models of Seizures. Subcutaneous” for “Subcutaneous”

[18] = tested on: corneal kindled mice seizures; test: Corneal kindled mice model; type: in vivo; settings: for Avg. Score / N/F (animals active over number tested): TPE 0.5 hours
Procedure: Evaluation of Compounds in Corneal Kindled Mice Model.
Corneal kindled mice are kindled electrically via 3 second stimulation at 8 mA, 60 Hz through corneal electrodes to produce 10 consecutive stage […] seizures according to the Racine scale. Animals are defined as kindled once they progress to a reproducible stage 5 seizure. 72 hours after the mice have been kindled the test substance is administered and, according to a previously determined TPE (time to peak), the animals are electrically stimulated. The animals are considered protected when displaying a stage 3, or lower, seizure.

[19] = tested on: 6 Hz psychomotor seizures; test: 6 Hz psychomotor seizure test, mice; type: in vivo; settings: Mus musculus, IP
Procedure: Evaluation of Compounds in 6 Hz Pyschomotor Seizure Test
as §6

[20] = tested on: Metrazol-induced clonic seizures; test: scM (subcutaneous Metrazol) test, mice; type: in vivo; settings: Mus musculus, mice
Procedure: as §5, with “Evaluation of Compounds in scM Models of Seizures. Subcutaneous” for “Subcutaneous”

in vivo = settings: mouse

IC50 [1]: 1.2 µM
IC50 (Nav1.6 [3]): 1.61 µM
IC50 (NaV1.7 [5]): 3.88 µM
IC50 (NaV1.7 [6]): 4.76 µM
IC50 (Nav1.6 [7]): 0.749 µM
shift of half maximal voltage for inactivation (V1/2) compared to control (NaV1.6 sodium channels; 1 μM): −9.3 mV
inhibition at 100 µM (Nav1.6 [9]): 95%
SMILES: Cc1nc(-c2ccc(Cl)cc2)[nH]c1-c1ccccc1 [MV1502, 2-(4-chlorophenyl)-4-methyl-5-phenyl-1H-imidazole hydrochloride]
seizure suppression [2]: suppressed seizures
IC50 (NaV1.5 [4]): 12.7 µM
IC50 (NaV1.5 [8]): 4.89 µM

IC50 [1]: 5.4 µM
IC50 (Nav1.6 [3]): 1.59 µM
IC50 (NaV1.7 [5]): 8.04 µM
IC50 (NaV1.7 [6]): 5.22 µM
IC50 (Nav1.6 [7]): 2.72 µM
shift of half maximal voltage for inactivation (V1/2) compared to control (NaV1.6 sodium channels; 10 μM): −12.7 mV
use-dependent block (NaV1.6 sodium channels): profound use-dependent block
inhibition at 100 µM (Nav1.6 [9]): 100%
SMILES: Cc1nc(-c2cccc(Cl)c2)[nH]c1-c1ccccc1 [MV1505, 2-(3-chlorophenyl)-4-methyl-5-phenyl-1H-imidazole]
seizure suppression [2]: suppressed seizures
IC50 (NaV1.5 [4]): 10 µM
IC50 (NaV1.5 [8]): 3.64 µM

IC50 [1]: 12 µM
IC50 (Nav1.6 [3]): 2.07 µM
IC50 (NaV1.7 [5]): 7.95 µM
IC50 (NaV1.7 [6]): 5.72 µM
IC50 (Nav1.6 [7]): 3.32 µM
shift of half maximal voltage for inactivation (V1/2) compared to control (NaV1.6 sodium channels; 10 μM): −10.9 mV
use-dependent block (NaV1.6 sodium channels): profound use-dependent block
inhibition at 100 µM (Nav1.6 [9]): 100%
SMILES: Cc1nc(-c2cccc(C(F)(F)F)c2)[nH]c1-c1ccccc1 [MV1504, 4-methyl-5-phenyl-2-[3-(trifluoromethyl)phenyl]-1H-imidazole hydrochloride]
seizure suppression [2]: suppressed seizures
IC50 (NaV1.5 [4]): 13.3 µM
IC50 (NaV1.5 [8]): 4.32 µM

Further lines, the compound ahead of its results:

SMILES: c1ccc(-c2c[nH]c(-c3ccccc3)n2)cc1 [MV1115]
solubility (Solubility; pH 3, aqueous buffer): 237 µM (≈ 52.2 µg/mL)
solubility (Solubility; pH 7.4, aqueous buffer): 175 µM (≈ 38.5 µg/mL)
Tox [10]: 126 mg/kg
ED50 [11]: 61.7 mg/kg
ED50 [12]: 160 mg/kg
recovery at 24 h (Chemical stability): 94%
recovery at 1 hr (CYP3A4): 87%
ED50 [13]: 47.2 mg/kg
IC50 (Nav1.6 [9]; comparison compounds, read-out: IC50 (NaV1.6)): 32 µM

SMILES: COc1ccc(-c2nc3ccccc3[nH]2)cc1 [MV1062, 2-(4-methoxyphenyl)-1H-1,3-benzodiazole]
ED50 ([14]; IP, Table 15, read-out: MES ED50): 10.8 mg/kg
ED50 ([14]; read-out: ED50 (MES test)): 10.8 mg/kg
ED50 ([15]; IP, Table 14, read-out: MES ED50): 30.8 mg/kg
ED50 ([15]; read-out: ED50 (MES test)): 30.8 mg/kg
TD50 ([16]; IP, Table 15, read-out: TOX TD50): > 500 mg/kg
TD50 ([16]; read-out: TD50 (behavioral toxic dose)): > 500 mg/kg
ED50 ([17]; sc, read-out: ED50 (scM test)): 123 mg/kg
ED50 ([17]; IP, Table 15, read-out: sCM ED50): 122 mg/kg
Avg. Score ([18]; 20 mg/kg): 5.0
N/F (animals active over number tested) ([18]; 20 mg/kg): 0/8
Avg. Score ([18]; 55 mg/kg): 4.0
N/F (animals active over number tested) ([18]; 55 mg/kg): 3/8
Avg. Score ([18]; 100 mg/kg): 1.375
N/F (animals active over number tested) ([18]; 100 mg/kg): 7/8
ED50 ([18]; Mus musculus): 63.6 mg/kg
ED50 ([19]; 32 mA, Table 14, read-out: 6 Hz (32 mA) ED50): 69.6 mg/kg
ED50 ([19]; (14 mA) [sic], Table 14, read-out: 6 Hz (14 mA) ED50): 80.5 mg/kg
ED50 ([20]; sc, read-out: ED50 (scM test)): 206 mg/kg
ED50 ([20]; IP, Table 14, read-out: sCM ED50): 206 mg/kg
TD50 (in vivo): 601 mg/kg
TD50 (in vivo; ip): 601 mg/kg
inhibition at 100 µM (Nav1.6 [9]): 70%
IC50 (Nav1.6 [9]; NaV1.6, Table 2, MV1060-MV1091, unit inferred, read-out: IC50): 90.2 µM

SMILES: COc1ccc(-c2nc(-c3ccccc3)c[nH]2)cc1 [MV1118]
Tox [10]: 223 mg/kg
ED50 [11]: 46.8 mg/kg
ED50 [12]: 142 mg/kg
ED50 [13]: 52.2 mg/kg
